From article PMC7482398 (Molecular Pharmaceutics, 2020)
Read-outs that look alike come from different tables or passages of the source.

Legend:
[1] = system: P-gp function at the blood–brain barrier; conditions: rhesus monkey, in vivo
[2] = rhesus monkey, in vivo
P-gp function at the BBB = conditions: cited from earlier work
P-gp = conditions: cited from earlier work
[3] = rats, 30 min after tracer injection; cited from earlier work
[4] = cited from earlier work
Sprague Dawley rats = conditions: male and female Sprague Dawley rats, 2.5 mg/kg body weight, 14 days of observation; cited from earlier work
Salmonella typhimurium = Salmonella typhimurium mutation test; cited from earlier work
Escherichia coli = Escherichia coli mutation test; cited from earlier work
[5] = after P-gp inhibition, tariquidar 8 mg/kg i.v. 30 min before PET

Row | SMILES | change in K1 between baseline and after-inhibition [1] | increase of whole brain VT from 10 min to 91-min data [1] | plasma radioactivity representing the parent tracer [2] | difference in biological T1/2 and Ke between baseline and after-inhibition scans ([2]; 8 mg/kg) | K1 rats (P-gp function at the BBB; [5]) | VT rats (P-gp function at the BBB; [5]) | K1 rats (P-gp function at the BBB; baseline scans) | VT rats (P-gp function at the BBB; baseline scans) | increase in K1 after tariquidar compared with baseline (P-gp function at the BBB; rats) | increase in VT after tariquidar compared with baseline (P-gp function at the BBB; rats) | whole brain K1 higher in tariquidar-treated rats than in control rats (P-gp function at the BBB; rats) | whole brain VT higher in tariquidar-treated rats than in control rats (P-gp function at the BBB; rats) | VT (brain uptake at the baseline) (P-gp; mice and rats, baseline) | transporter selectivity (P-gp vs BCRP) (P-gp; ref Savolainen et al. (2017), 14) | parent [18F]MC225 still available in plasma [3] | log D [4] | toxicity (Sprague Dawley rats) | mutagenic activity (Salmonella typhimurium) | mutagenic activity (Escherichia coli)
1 | COc1cc2c(cc1OC)CN(CCCC1CCCc3c(OCC[18F])cccc31)CC2 (stereo not shown) [[^18F]MC225] | 42–44% | 165% | 50% | did not find significant differences | 0.81 | 20 | 0.12 mL/mL/min | 7.7 | 6–11 fold | 2–4 fold | 575% | 159% | 6.6–11 | selectively transported by P-gp and not by BCRP | 24% | 3.0 | – | – | –
2 | COc1cc2c(cc1OC)CN(CCCC1CCCc3c(OCCF)cccc31)CC2 (stereo not shown) [MC225, 5-(1-(2-fluoroethoxy))-[3-(6,7-dimethoxy-3,4-dihydro-1H-isoquinolin-2-yl)-propyl]-5,6,7,8-tetrahydronaphthalen] | – | – | – | – | – | – | – | – | – | – | – | – | – | – | – | – | did not cause toxicity | did not reveal any mutagenic activity | did not reveal any mutagenic activity
